Experimental data as given in patent publication US20240398785A1, “SMALL MOLECULE DRUGS FOR THE INDUCTION OF TRAINED IMMUNITY” (THE UNIVERSITY OF CHICAGO, priority 2023, published 2024).

How the values were obtained:
[1] = test system: BMDMs; assay: Annexin-V staining for apoptotic cells; assay type: cell-based, mouse; details: 100 nM, 24 hours
Method: FIGS. 9A-9E: Representative plots for Annexin V gating strategy for apoptotic cells: BMDMs were stimulated with nothing (unstained control, FIG. 9A), PBS (negative control, FIG. 9B), Camptothecin (positive control, FIG. 9C) or A1155463 (FIG. 9D); n=3, (except camptothecin n=1). Results from plots 9B-9D depicted in FIG. 9E.
Since Bcl-xL is a known anti-apoptotic protein, a study was performed to see if inhibition with 100 nM A1155463 induced apoptosis in BMDMs. To test this, Annexin-V staining was used to gate for apoptotic cells 24 hours following stimulation with either PBS or A1155463.

[2] = test system: BMDMs; assay: A1155463 training with inhibitor pre-treatment (MTA, EGCG, 2-DG); assay type: cell-based, mouse
Method: FIGS. 5A-5F: Testing A1155463 as an inducer of trained immunity (TI) in vitro. FIG. 5A is a schematic diagram for in-vitro TI assay in bone marrow-derived macrophages (BMDMs). FIG. 5B is a graph showing interleukin-6 (IL-6) levels (expressed in picograms per milliliter (pg/ml) 24 hours (h) post PAM3-CSK4 (Pam3) challenge in an in-vitro TI assay in BMDMs trained with either phosphate buffered saline (PBS) (black) or A1155463 (pink); n=15. FIG. 5C is a graph showing tumor necrosis factor alpha (TNF-α) levels (pg/ml) 24 h post Pam3 challenge in an in-vitro TI assay in BMDMs trained with either PBS (black) or A1155463 (pink); n=10. FIG. 5D is a graph showing IL-6 levels (pg/ml) 24 h post-stimulation with PBS (black) or A1155463 (pink); n=3. FIG. 5E is a graph showing the fold change in TNF-α following Pam3 challenge in BMDMs trained with A1155463 pre-treated with PBS, MTA (histone methyl transferase inhibitor), EGCG (histone acetyltransferase inhibitor) or 2-DG (glycolysis inhibitor); n=15, significance compared with PBS control of each inhibitor. FIG. 5F is a graph of IL-6 levels (pg/ml) 24 h post Pam3 challenge in an in-vitro TI assay in BMDMs trained with either PBS (black) or A1155463 (pink) pretreated with varying concentrations of 2-DG; n=5.
After ruling out apoptosis and innate inflammation, an additional study was performed to attempt to determine the mechanism of action of A1155463-induced training in BMDMs. Training induces epigenetic and metabolic rewiring of macrophages which can be probed using small molecule inhibitors of various pathways.^16 Epigenetic changes are associated with increased histone methylation and acetylation, promoting transcription and translation of proinflammatory cytokines in response to pathogenic stimuli. Metabolic changes alter cellular metabolism, mostly favoring glycolysis, to meet the higher energy requirements of a trained cell. […]

[3] = test system: bone-marrow cells; assay: Bone-marrow cells of trained mice challenged ex-vivo with LPS; assay type: in vivo, mouse; details: 5 ng/mL LPS ex vivo, 24 hours
Method: (§1) FIGS. 6A-6H: in-vivo A1155463 trained immunity (TI) assays. FIG. 6A is a schematic showing the in-vivo training schedule. Mice were dosed intraperitoneally (i.p.) with training material (PBS or A1155463 at 15 milligrams per kilogram body weight (mg/kg)) daily for six days. Mice were challenged with […] lipopolysaccharide (LPS) on day 7. FIG. 6B is a graph showing the interleukin-6 (IL-6) and tumor necrosis factor-alpha (TNF-α) levels (expressed as picograms per milliliter (pg/ml) 1 hour (h) following LPS challenge with either PBS (black) or A1155463 (pink); n=5. FIG. 6C is a graph showing the percentage (%) of small peritoneal macrophages (SPMs) from the peritoneal cavity of PBS (black) or A1155463 trained (pink) mice 2 h post LPS challenge on day 7. FIG. 6D is a graph showing the IL-6 levels (pg/ml) from bone-marrow cells isolated on day 7 challenged ex-vivo with LPS from either PBS (black) or A1155463 (pink) trained mice; n=3. FIG. 6E is a schematic showing the in-vivo training schedule for B16.F10 tumor challenge. […]
Apart from increased systemic cytokines, recruitment of monocyte-derived small peritoneal macrophages (SPMs) is another hallmark of enhanced training. […] Bone-marrow cells from PBS or A1155463 trained cells were challenged with 5 ng/mL of LPS and the supernatant was analyzed 24 hours later. […]

[4] = test system: B16.F10 tumors; assay: B16.F10 tumor model after A1155463 training; assay type: in vivo, mouse
Method: as §1, with “challenge. FIG. 6F is a graph showing the tumor volumes (in cubic millimeters (mm3)) of mice trained with PBS (black) or A1155463 (pink) mice; n=8. FIG. 6G is a schematic of the in-vivo training schedule for B16.F10 tumor challenge with checkpoint therapy (CPT) administered on day 14 and 17.” for “challenge.”

## CN(C)CC#Cc1ccc(OCCCc2sc(N3CCc4cccc(C(=O)Nc5nc6ccccc6s5)c4C3)nc2C(=O)O)c(F)c1 [A1155463, 2-(8-(benzo[d]thiazol-2-ylcarbamoyl)-3,4-dihydroisoquinolin-2(1H)-yl)-5-(3-(4-(3-(dimethyl-amino)prop-1-yn-1-yl)-2-fluorophenoxy)propyl)thiozole-4-carboxylic acid]
[1]
  percentage of apoptotic cells: No significant difference
[2]; 30 min pre-treatment
  training after epigenetic small molecule inhibitors (MTA, EGCG): no significant difference
[2]; different concentrations of 2-DG
  Pam3 induced IL-6 levels with 2-DG: significant decrease
[2]; glycolysis inhibitor 2DG
  reduction in the TNF-α level following Pam3 challenge by 2DG pre-treatment: 50%
[3]
  increase in bone-marrow derived IL-6 levels vs untrained control: approximately 5 fold
[4]; 15 mg/kg daily for 6 days, s.c. B16.F10 24 hours after last dosing
  tumor growth vs untrained (vehicle) control: significant decrease in tumor growth
[4]; plus anti-PDL1 and anti-CTLA-4 on days 14 and 17
  tumor growth with checkpoint therapy: Significantly reduced tumor growth
